Experimental data reported in paper PMC12635197, “Discovery of first-in-class inhibitors of the TRF1:TIN2 protein:protein interaction by fragment screening” (Scientific Reports, 2025).

What was measured:
[1] = LC-MS analysis of original compound DMSO stock; format: physicochemical; conditions: negative mode LC-MS
From the text: By measuring the R2 values of fragments with and without protein present in the sample, a strong indication of the extent of protein binding can be obtained. […] This increase in R2 was reversed upon addition of the TIN2TBM competitor. […] Nevertheless, given the strong binding activity of the fragment derivative 27 in the CPMG assay, a pure stock of 27 was synthesised and put forward for further characterisation using a quantitative LO-NMR assay to determine the dissociation constant.
Supplementary Figure 3: Negative mode LC-MS analysis of compound 25. The LC-UV
This value aligned with the molecular weight of compound 27 (251 g mol-1), conﬁrming that
(1 picture or pasted object on this page, not shown here)

[2] = target: TRF1TRFH; parameters: method as in PMID 18202258; conditions: ITC; read-out: dissociation constant of TIN2TBM for TRF1TRFH; cited from earlier work

| stability in original screening DMSO stock [1] | Compound | Kd [2] [nM] |
| --- | --- | --- |
| degraded into compound 27 | CCOc1ccc(S(=O)(=O)n2ccnc2)c2ccccc12 [Compound 25] | – |
| – | Ac-RHFNLAPLGRRRVQSQWASTR-CONH2 (Ac-RHFNLAPLGRRRVQSQWASTR-NH2) [TIN2TBM] | 300 |
